# Where two headings read alike, the source gives them in different places.
# Tests used:
# [1] = Solubility by LC/MS/MS; assay type: physicochemical; conditions: kinetic from dmso stock
# Description: Stock solutions of the tested compounds at 50 mM in dimethyl sulfoxide (DMSO) were diluted 50-fold in methanol (MeOH), Roswell Park Memorial Institute-1640 (RPMI1640), plus 5% charcoal-stripped serum (CSS) from Sigma-Aldrich (media) and phosphate-buffered saline (PBS), and vortexed at room temperature for 1 h at 800 rpm. The resulting solutions were centrifuged at 20,000× g for 5 min, and the saturated supernatants were diluted 40-fold in acetonitrile. The resultant solutions were subjected to LC/MS/MS to determine the solubility.
# [2] = target: TOP2B (Homo sapiens, UniProt Q02880); test: K-DNA decatenation assay, TOP2B; assay type: biochemical; conditions: 0.01-200 uM, three biological repeats
# Description: Figure 3 T637 and T638 are TOP2B inhibitors. (A) K-DNA decatenation assays and (B) supercoiled plasmid DNA relaxation assays are used to measure TOP2B activity in the presence of 0.01–200 uM T637 or T638. Three biological repeats were performed with each concentration of the compounds, and the densitometry of the D-DNA bands from (A) and the SC bands from (B) was used to establish an inhibition curve for IC50 calculation.
# [3] = target: T1, human TOP2A(431-1193) (Homo sapiens, UniProt P11388); test: EMSA, TOP2A(431-1193) with 5ZRF DNA oligo; assay type: binding; conditions: 2 uM protein, 300 nM oligo
# T1 construct: 6xHis (N); made in house; host or cells: E. coli BL21 (DE3)
# [4] = system: cervical cancer line Hela; test: Hela cell growth (Incucyte); conditions: Homo sapiens, 120 h, read-out: Cell growth inhibition
# Description: (§2) (A) K562 cells were treated with 0, 0.5, 1, 5, 10, 15, and 20 uM of T60 or 0, 0.5, 1, 5, 10, 15, 20, 50, and 100 uM of T637 and T638 for 24, 48, or 72 h. […] (B) NCI-H446 small cell lung cancer line and Hela cervical cancer line were treated with 0, 0.5, 1, 5, 10, 15, and 20 uM of T60 or 0, 0.5, 1, 5, 10, 15, 20, 50, and 100 uM of T637 and T638 for five days. Cell growth rates were measured by using Incucyte^TM. (C) K562 cells were treated with 0, 5, 10, 15, and 20 uM of T60, T637, or T638 for 48 h. Cytotoxicity was evaluated by measuring the LDH levels from the culture media. (D) K562 cells were treated with the vehicle or 10–20 µM of etoposide, T60, T637, or T638 for 4 h. Immunoblotting measured p-H2AXγ levels in cells with vinculin as a loading control.
# [5] = system: small cell lung cancer line NCI-H446; test: NCI-H446 cell growth (Incucyte); conditions: Homo sapiens, NCI-H446, 120 h, read-out: Cell growth inhibition
# Description: as §2
# [6] = target: T2, full-length TOP2B (Homo sapiens, UniProt Q02880); test: EMSA, full-length TOP2B with 5ZRF DNA oligo; assay type: binding; parameters: EMSA was performed by purified full-length TOP2A or TOP2B proteins; conditions: 200 µM compound, 300 nM protein, 100 nM oligo
# Description: (§1) (A) EMSA was performed by purified full-length TOP2A or TOP2B proteins at a contraction of 300 nM with IRDay700 labeled 5ZRF DNA oligo at a concentration of 100 nM in the presence of −/+200 µM of ICRF193, T60, T637, and T638. […] Reactions were subjected to fluorescence […], which were detected by using the Multimode Microplate Reader (Infinite F500). (D) DNA cleavage assays were performed using full-length human TOP2A and TOP2B incubated with the supercoiled pHOT plasmid in the presence of 200 µM of etoposide plus 1, 100, or 200 µM of ICRF193, T60, T637, and T638. Reactions were separated on a DNA gel with ethidium bromide. All experiments were repeated three times, and one representative image was shown. Note: N, nicked DNA; L, linear DNA; and SC, supercoiled DNA.
# [7] = target: T2, full-length TOP2B; test: DNA cleavage assay, TOP2B; assay type: biochemical; parameters: DNA cleavage assays were performed using full-length human TOP2A and TOP2B; conditions: 200 µM etoposide plus 1, 100 or 200 µM compound, pHOT plasmid
# Description: as §1
# T2 sequence (Q02880 whole entry): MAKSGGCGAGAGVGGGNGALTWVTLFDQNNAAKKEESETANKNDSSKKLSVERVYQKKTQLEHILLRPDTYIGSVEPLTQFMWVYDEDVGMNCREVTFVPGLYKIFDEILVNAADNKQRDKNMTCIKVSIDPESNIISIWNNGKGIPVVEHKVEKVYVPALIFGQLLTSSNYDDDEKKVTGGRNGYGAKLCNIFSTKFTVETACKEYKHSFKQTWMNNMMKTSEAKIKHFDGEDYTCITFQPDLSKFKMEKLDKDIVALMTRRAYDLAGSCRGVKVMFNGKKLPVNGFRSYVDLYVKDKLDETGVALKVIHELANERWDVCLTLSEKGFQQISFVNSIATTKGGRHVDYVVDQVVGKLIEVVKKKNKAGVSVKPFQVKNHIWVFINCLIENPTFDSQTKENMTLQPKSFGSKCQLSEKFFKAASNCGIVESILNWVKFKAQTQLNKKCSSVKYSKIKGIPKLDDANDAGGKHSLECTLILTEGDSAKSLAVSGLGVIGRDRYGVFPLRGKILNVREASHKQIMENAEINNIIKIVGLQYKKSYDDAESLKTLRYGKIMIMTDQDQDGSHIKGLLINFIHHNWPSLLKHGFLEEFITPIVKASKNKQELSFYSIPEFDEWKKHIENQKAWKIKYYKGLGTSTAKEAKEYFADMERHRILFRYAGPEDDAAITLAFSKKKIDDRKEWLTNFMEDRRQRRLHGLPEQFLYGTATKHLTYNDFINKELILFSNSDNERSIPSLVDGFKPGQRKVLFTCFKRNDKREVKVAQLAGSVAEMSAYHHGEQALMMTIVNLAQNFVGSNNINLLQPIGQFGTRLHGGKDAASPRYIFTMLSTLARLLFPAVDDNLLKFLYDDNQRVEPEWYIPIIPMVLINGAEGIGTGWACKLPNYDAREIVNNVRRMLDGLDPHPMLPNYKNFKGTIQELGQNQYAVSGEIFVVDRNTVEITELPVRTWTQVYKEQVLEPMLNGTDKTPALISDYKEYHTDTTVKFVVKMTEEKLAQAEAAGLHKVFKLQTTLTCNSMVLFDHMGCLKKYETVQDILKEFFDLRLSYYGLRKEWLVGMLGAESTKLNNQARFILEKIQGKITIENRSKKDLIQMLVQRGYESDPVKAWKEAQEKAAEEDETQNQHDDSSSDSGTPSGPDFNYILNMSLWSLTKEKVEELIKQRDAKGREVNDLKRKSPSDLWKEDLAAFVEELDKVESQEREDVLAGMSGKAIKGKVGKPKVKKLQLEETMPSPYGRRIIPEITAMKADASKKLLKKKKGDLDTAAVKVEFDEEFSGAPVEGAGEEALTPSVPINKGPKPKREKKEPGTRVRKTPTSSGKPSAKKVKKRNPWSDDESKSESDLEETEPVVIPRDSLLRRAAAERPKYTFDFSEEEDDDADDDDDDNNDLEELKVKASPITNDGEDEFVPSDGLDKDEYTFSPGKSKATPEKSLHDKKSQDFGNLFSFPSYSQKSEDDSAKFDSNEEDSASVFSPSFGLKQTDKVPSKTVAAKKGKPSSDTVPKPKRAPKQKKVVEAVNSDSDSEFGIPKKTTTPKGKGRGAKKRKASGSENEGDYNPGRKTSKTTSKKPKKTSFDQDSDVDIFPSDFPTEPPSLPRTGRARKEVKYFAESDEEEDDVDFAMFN
# TOP2B, sequence (Q02880 whole entry): as above
# T1 sequence (P11388 431-1193): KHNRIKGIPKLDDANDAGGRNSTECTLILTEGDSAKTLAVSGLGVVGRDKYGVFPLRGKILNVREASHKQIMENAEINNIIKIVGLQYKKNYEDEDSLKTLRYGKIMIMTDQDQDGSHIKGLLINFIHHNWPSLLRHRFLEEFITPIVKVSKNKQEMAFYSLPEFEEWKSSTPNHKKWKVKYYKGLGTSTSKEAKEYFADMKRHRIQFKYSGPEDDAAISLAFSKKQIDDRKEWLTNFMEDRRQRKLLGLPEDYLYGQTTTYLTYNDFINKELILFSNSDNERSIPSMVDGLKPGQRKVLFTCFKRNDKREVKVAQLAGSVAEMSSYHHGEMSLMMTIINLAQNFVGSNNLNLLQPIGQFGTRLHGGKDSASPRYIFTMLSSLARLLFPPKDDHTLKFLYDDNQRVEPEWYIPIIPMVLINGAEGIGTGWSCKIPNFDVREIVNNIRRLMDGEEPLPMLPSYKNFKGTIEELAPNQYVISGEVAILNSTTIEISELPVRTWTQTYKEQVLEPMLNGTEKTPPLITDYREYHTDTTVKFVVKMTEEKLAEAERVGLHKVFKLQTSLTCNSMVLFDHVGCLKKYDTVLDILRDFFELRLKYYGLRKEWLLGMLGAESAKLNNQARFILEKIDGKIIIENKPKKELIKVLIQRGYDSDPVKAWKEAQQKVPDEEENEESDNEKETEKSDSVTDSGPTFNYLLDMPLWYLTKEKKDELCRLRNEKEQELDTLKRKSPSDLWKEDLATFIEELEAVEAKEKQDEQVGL
structure (smiles),measurement,setting,value
Nc1cc(Nc2ccccc2)ccc1NC(=O)c1ccc[nH]c1=S [T638],solubility at 1 h,"[1]; RPMI1640 plus 5% charcoal-stripped serum, plasma or biological fluid, cell culture media with serum, read-out: Solubility Media/FBS",485 µM
same,solubility at 1 h,"[1]; methanol, organic solvent or mixture, methanol, read-out: Solubility Methanol",> 1000 µM
same,solubility at 1 h,"[1]; phosphate-buffered saline, aqueous buffer, PBS, read-out: Solubility PBS",142 µM
same,IC50,[2],~3.8 µM
same,Inhibition of TOP2A(431-1193)-DNA interaction (EMSA),[3],inhibited TOP2A–DNA interaction dose-dependently
same,inhibition at 100 µM,[4],100%
same,inhibition at 100 µM,[5],100%
same,Block of TOP2B-DNA oligo complex formation (EMSA),[6],block
same,"Prevention of etoposide-induced DNA cleavage, TOP2B",[7],did prevent etoposide-induced DNA cleavage
